Test results published in publication PMC6940897, “Less Cytotoxic Protoflavones as Antiviral Agents: Protoapigenone 1′-O-isopropyl ether Shows Improved Selectivity Against the Epstein–Barr Virus Lytic Cycle” (International Journal of Molecular Sciences, 2019).
Entries after “also recorded” stand apart in the source; their conditions may differ.

Columns and labels:
[1] = MTT cytotoxicity on the HIV host cells; format: cell-based; conditions: human, U373-CD4-CCR5 cells, MTT, 48 h, n=2; tested up to 100 µM (compound 9 up to 500 µM); read-out: Cytotoxic IC50 ± SEM
Procedure: (§1) The U373-CD4-CCR5 cell line was obtained from the AIDS Research and Reagent Program, NIAID. Cells were cultured according to the protocol of the provider with 10% heat-inactivated fetal bovine serum (Lonza, Maastricht, The Netherlands) supplemented with 2 mM L-glutamine, 100 units/mL of penicillin, and 100 µg/mL streptomycin (Invitrogen, Merelbeke, Belgium). Pseudotyped viral particules bearing the ADA HIV Env were produced, as described previously.
(§2) Antiviral activity was assessed while using a Pseudotype Virus Assay, allowing for one cycle of viral replication. The U373-CD4-CCR5 cells were infected by pseudotyped virus pNL4.3ΔenvLuc-ADA 8 using spinoculation at 1200 g during 2 h in the presence of compounds and cultured for two consecutive days in the presence of the compounds. After 48 h, luciferase activity expressed as Relative Light Units was measured (Luciferase System kit, Promega, The Netherlands). Drug cytotoxicity was evaluated while using MTT (3-(4,5-dimethylthiazol-2-yl)-2,5-diphenyltetrazolium bromide, Sigma, Belgium) 48 h after incubation with the compounds by measuring A540 and A690 using a POLARstar Omega Plate Reader (BMG Lab Technologies, Belgium) after 48 h of incubation with the compounds. The value of OD540–OD690 was calculated.

[2] = test system: EBV lytic cycle (expression of EBV Rta); assay: Inhibition of EBV lytic cycle: immunoblot of Rta expression in P3HR1 cells after lytic induction; format: cell-based, Epstein–Barr Virus; conditions: for IC50: human gammaherpesvirus 4, P3HR-1, 24 h after lytic induction with SB and TPA; for IC50 / concentration causing a marked reduction in the Rta levels: immunoblot; for selectivity ratio at 24 h: human, cytotoxic IC50 (P3HR1) / anti-EBV Rta IC50, read-out: Selectivity of the anti-EBV vs. cytotoxic effect (ratio of the corresponding IC50 values); for inhibition of EBV lytic cycle, first screening (in words): 0.25 µM, sodium butyrate + TPA, 24 h; for concentration causing a marked reduction in the Rta levels: 24 h after lytic induction
Procedure: Compounds 2 and 6–28 were tested for their activity on the EBV lytic cycle. To assess this, the P3HR1 cells were treated with sodium butyrate and TPA for 24 h. As expected, lytic protein Rta was expressed after lytic induction. As a first screening, the cells were treated with protoapigenone (2), used as a positive control, or compounds 6–28 at the induction of lytic cycle for 24 h.
(§3) EBV-positive BL cell line P3HR1 cells were cultured in RPMI 1640 medium. Culture media were supplemented with 10% fetal calf serum. P3HR1 cells were treated with 3 mM sodium butyrate and 30 nM 12-O-tetradecanoylphobol-13-actetae (TPA) to induce the EBV lytic cycle.
P3HR1 cells were lysed in mRIPA buffer (50 mM Tris-HCl, pH 7.8, 150 mM NaCl, 5 mM EDTA, 0.5% Triton X-100, 0.5% NP-40). Approximately 5% of the lysate was loaded to a gel and then separated by electrophoresis in 10% SDS-PAGE. The proteins in the gel were electroblotted onto a polyvinylidene difluoride (PVDF) blotting membrane while using a Hoefer transfer system. Rta was detected while using mouse anti-Rta monoclonal antibody (Argene, Verniolle, France). α-Tubulin was detected using mouse anti-α-tubulin monoclonal antibody (Abcam, Cambridge, UK). Primary antibodies were detected using horseradish peroxidase-conjugated secondary antibodies (Cell Signaling Technology, Danvers, MA, USA) and then visualized using SuperSignal West Pico Chemiluminescent substrate (Thermo Fisher Scientific, Waltham, MA, USA).

[3] = MTT cytotoxicity assay on P3HR1 cells; format: cell-based; conditions: human, 24 h
Procedure: as §3
(§4) P3HR1 cells (5 × 10^4) were seeded in wells of a 96-well plate and then cultured for 24 h in 100 µL of RPMI 1640 medium containing protoapigenone or its analogs. Subsequently, 1% Triton X-100 was added as a […] control. Cytotoxicity was determined by Cell Proliferation Kit I (Roche, Basel, Switzerland). An aliquot of 10 µL of the MTT labeling reagent was added to each well and the plate was incubated for 4 h at 37°C. Afterwards, 100 µL solubilization solution was added to each well to dissolve insoluble formazan and was incubated overnight. Optical density was measured at 595 nm and 650 nm.

[4] = test system: EBV lytic cycle (expression of EBV Rta); design: method as in PMID 21490247; conditions: 0.25 µM; cited from earlier work
P3HR1 cells = assay: MTT cytotoxicity assay on P3HR1 cells; format: cell-based
Procedure: as §3, §4

HIV-1 = HIV-1 pseudotype virus assay (one cycle of viral replication, luciferase readout); format: cell-based
Procedure: Compounds 2, 6–14, and 21–28 were tested against HIV-1 while using a pseudotype virus assay allowing only one cycle of viral replication and being more sensitive for compounds targeting the early steps of HIV replication, such as reverse transcription and integration. […] While this represents a rather weak activity, it might still be of interest, since this compound was not cytotoxic on the host cells at as high as 500 µM concentration.
as §1, with “Pseudotyped viral particules bearing the ADA HIV Env were produced, as described previously.” left out
as §2, with “The U373-CD4-CCR5 cells were infected by pseudotyped virus pNL4.3ΔenvLuc-ADA 8 using spinoculation at 1200 g during 2 h in the presence of compounds and cultured for two consecutive days in the presence of the compounds.” left out

U373-CD4-CCR5 cells = assay: MTT cytotoxicity on the HIV host cells; format: cell-based; conditions: for IC50: U373-CD4-CCR5 cells, MTT, 48 h, n=2, tested up to 100 µM (compound 9 up to 500 µM), read-out: Cytotoxic IC50 ± SEM
Procedure: as §1, §2

In the case of `O=C1C=CC(O)(c2cc(=O)c3c(O)cc(O)cc3o2)C=C1` [Compound 2, protoapigenone], the IC50 at 48 h [1] is reported as 0.22 ± 0.003 µM, the IC50 [2] is reported as 0.127 µM and the selectivity ratio at 24 h [2] is reported as 30.1. For the same molecule, the IC50 at 24 h [3] was 3.86 µM and the “activity against EBV lytic cycle (in words)” value [4] was “strong activity”.

For `CC(C)OC1(c2cc(=O)c3c(O)cc(O)cc3o2)C=CC(=O)C=C1` [Compound 6, protoapigenone 1′-O-isopropyl ether], the IC50 at 48 h [1] was 2.09 ± 0.13 µM, the “inhibition of EBV lytic cycle, first screening (in words)” value (from here on “inhibition of EBV lytic cycle”) [2] was “can inhibit EBV lytic cycle” and the “concentration causing a marked reduction in the Rta levels” value (from here on “concentration causing a marked reduction”) [2] was 0.50 µM. The IC50 [2] was 0.467 µM, the selectivity ratio at 24 h [2] was 73 and the IC50 at 24 h [3] was 34.1 µM. For the same molecule, the “cytotoxic activity compared to protoapigenone (in words)” value (P3HR1 cells) was “much weaker; also recorded: an order of magnitude lower cytotoxic effect”.

In the case of `CCCCOC1(c2cc(=O)c3c(O)cc(O)cc3o2)C=CC(=O)C=C1` [Compound 7], the IC50 at 48 h [1] is reported as 0.25 ± 0.002 µM, the “inhibition of EBV lytic cycle” value [2] is reported as “can inhibit EBV lytic cycle” and the “concentration causing a marked reduction” value [2] is reported as 0.25 µM. For the same molecule, the IC50 [2] was 0.208 µM, the selectivity ratio at 24 h [2] was 9.8 and the IC50 at 24 h [3] was 2.04 µM. The “cytotoxic activity compared to protoapigenone (in words)” value (P3HR1 cells) was “similarly active as protoapigenone”.

In the case of `C#CCOC1(c2cc(=O)c3c(O)cc(O)cc3o2)C=CC(=O)C=C1` [Compound 8, protoapigenone 1′-O-propargyl ether], the IC50 at 48 h [1] is reported as 0.67 ± 0.03 µM, the “inhibition of EBV lytic cycle” value [2] is reported as “can inhibit EBV lytic cycle” and the “concentration causing a marked reduction” value [2] is reported as 0.50 µM. For the same molecule, the IC50 [2] was 0.285 µM, the selectivity ratio at 24 h [2] was 17.3 and the IC50 at 24 h [3] was 4.93 µM. For the same molecule, the “cytotoxic activity compared to protoapigenone (in words)” value (P3HR1 cells) was “similarly active as protoapigenone”.

In the case of `O=C1CCC(O)(c2cc(=O)c3c(O)cc(O)cc3o2)CC1` [Compound 9, Tetrahydroprotoapigenone], the inhibition at 100 µM (HIV-1; Human immunodeficiency virus 1, 48 h, read-out: inhibition of viral infection) is reported as about 50%, the “antiretroviral activity against HIV-1 (in words)” value (HIV-1; pseudotype virus assay, 100 µM where stated) is reported as “inhibits HIV-1 infection; also recorded: weak antiretroviral activity” and the IC50 at 48 h [1] is reported as over 500 µM. For the same molecule, the “cytotoxicity on the host cells (in words)” value (U373-CD4-CCR5 cells; at as high as 500 µM) was “not cytotoxic”.

With `COC1(c2cc(=O)c3c(O)cc(O)cc3o2)CCC(=O)CC1` [Compound 10] the IC50 at 48 h [1] was over 100 µM.

`CCOC1(c2cc(=O)c3c(O)cc(O)cc3o2)CCC(=O)CC1` [Compound 11] showed an IC50 at 48 h [1] of over 100 µM.

For `CCCOC1(c2cc(=O)c3c(O)cc(O)cc3o2)CCC(=O)CC1` [Compound 12], the IC50 at 48 h [1] was over 100 µM.

In the case of `CC(C)OC1(c2cc(=O)c3c(O)cc(O)cc3o2)CCC(=O)CC1` [Compound 13], the IC50 at 48 h [1] is reported as over 100 µM.

In the case of `CCCCOC1(c2cc(=O)c3c(O)cc(O)cc3o2)CCC(=O)CC1` [Compound 14], the IC50 at 48 h [1] is reported as about 6.37 µM.

For `COC1CC(=NO)C=CC1(OC(C)C)c1cc(=O)c2c(O)cc(O)cc2o1` (stereo not shown) [Compound 21], the IC50 at 48 h [1] was over 100 µM.

Molecule `CCCCOC1(c2cc(=O)c3c(O)cc(O)cc3o2)C=CC(=NO)CC1OC` (stereo not shown) [Compound 22] has an IC50 at 48 h [1] of over 100 µM.

For `C#CCOC1(c2cc(=O)c3c(O)cc(O)cc3o2)C=CC(=NO)CC1OC` (stereo not shown) [Compound 23], the IC50 at 48 h [1] was about 89.5 µM.

`COC1CC(=NO)C=CC1(OC(C)C)c1cc(=O)c2c(O)cc(O)cc2o1` (stereo not shown) [Compound 24] showed an IC50 (U373-CD4-CCR5 cells) of over 100 µM.

Work on `CCCCOC1(c2cc(=O)c3c(O)cc(O)cc3o2)C=CC(=NO)CC1OC` (stereo not shown) [Compound 25] yielded an IC50 (U373-CD4-CCR5 cells) of 53.88 ± 0.35 µM.

Work on `C#CCOC1(c2cc(=O)c3c(O)cc(O)cc3o2)C=CC(=NO)CC1OC` (stereo not shown) [Compound 26] yielded an IC50 (U373-CD4-CCR5 cells) of over 100 µM.

Work on `O=c1cc(C2(O)CCC(=NO)CC2)oc2cc(O)cc(O)c12` (stereo not shown) [Compound 27] yielded an IC50 at 48 h [1] of over 100 µM.

In the case of `CCCCOC1(c2cc(=O)c3c(O)cc(O)cc3o2)CCC(=NO)CC1` (stereo not shown) [Compound 28], the IC50 at 48 h [1] is reported as 27 ± 8.4 µM.
